Experimental data from ChEMBL document CHEMBL4476882, “Inhibitors of nedd8-activating enzyme” (2013).
Activity calls are given as the source filed them. No cut-off for these calls is given here.

Key:
NEDD8 activating enzyme = target: T1, NEDD8 activating enzyme (Homo sapiens, UniProt Q8TBC4); assay: Inhibition of recombinant human NAE using GST-tagged Ubc12 and Flag-tagged Nedd8 incubated for 105 mins by HTRF assay; assay type: protein-complex assay
T1 sequence (Q8TBC4 whole entry): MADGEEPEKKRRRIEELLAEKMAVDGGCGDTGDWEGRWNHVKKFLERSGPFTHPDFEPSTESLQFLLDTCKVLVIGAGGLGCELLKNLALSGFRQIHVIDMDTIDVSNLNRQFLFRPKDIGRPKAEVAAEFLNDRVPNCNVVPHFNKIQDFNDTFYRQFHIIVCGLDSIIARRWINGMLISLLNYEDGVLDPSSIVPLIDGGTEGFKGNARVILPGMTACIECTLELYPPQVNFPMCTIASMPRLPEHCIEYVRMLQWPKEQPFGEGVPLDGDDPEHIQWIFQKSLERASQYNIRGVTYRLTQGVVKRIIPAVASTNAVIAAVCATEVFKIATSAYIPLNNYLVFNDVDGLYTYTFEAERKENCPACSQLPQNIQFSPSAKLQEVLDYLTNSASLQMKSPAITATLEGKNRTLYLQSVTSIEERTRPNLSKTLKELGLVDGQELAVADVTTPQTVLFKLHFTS
T1 sequence (Q13564 whole entry): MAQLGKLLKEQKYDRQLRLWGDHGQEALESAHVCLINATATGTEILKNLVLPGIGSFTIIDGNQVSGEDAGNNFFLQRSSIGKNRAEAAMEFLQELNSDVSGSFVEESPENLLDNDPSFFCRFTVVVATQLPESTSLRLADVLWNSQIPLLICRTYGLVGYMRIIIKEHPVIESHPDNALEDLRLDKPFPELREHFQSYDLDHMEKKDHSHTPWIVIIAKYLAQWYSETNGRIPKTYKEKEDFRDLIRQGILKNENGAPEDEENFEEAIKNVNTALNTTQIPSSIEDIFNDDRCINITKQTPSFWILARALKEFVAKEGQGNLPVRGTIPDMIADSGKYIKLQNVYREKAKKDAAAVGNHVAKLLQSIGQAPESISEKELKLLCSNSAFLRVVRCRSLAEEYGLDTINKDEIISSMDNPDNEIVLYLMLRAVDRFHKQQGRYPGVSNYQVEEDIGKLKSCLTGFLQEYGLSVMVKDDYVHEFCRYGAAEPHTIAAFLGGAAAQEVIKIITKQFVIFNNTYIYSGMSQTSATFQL

Mus musculus [1] = assay: Inhibition of NAE in female Ncr nude mouse bearing HCT116 tumor xenografts assessed as increase in Nedd8-Cullin levels at 10 mg/kg, sc dosed as single administration measured up to 24 hrs post dose; assay type: functional, organism-based
[2] = AUC (last) in plasma of female Ncr nude mouse bearing HCT116 tumor xenografts at 30 mg/kg, sc dosed as single administration measured up to 24 hrs post dose; assay type: ADME, organism-based; design: dose 30 mg/kg, time 0 - last, route subcutaneous
[3] = AUC (last) in plasma of female Ncr nude mouse bearing HCT116 tumor xenografts at 10 mg/kg, sc dosed as single administration measured up to 24 hrs post dose; assay type: ADME, organism-based; design: dose 10 mg/kg, time 0 - last, route subcutaneous
Mus musculus [4] = assay: Inhibition of NAE in female Ncr nude mouse bearing HCT116 tumor xenografts assessed as increase in Nedd8-Cullin levels at 30 mg/kg, sc dosed as single administration measured up to 24 hrs post dose; assay type: functional, organism-based
[5] = Cmax in plasma of female Ncr nude mouse bearing HCT116 tumor xenografts at 30 mg/kg, sc dosed as single administration measured up to 24 hrs post dose; assay type: ADME, organism-based; design: dose 30 mg/kg, route subcutaneous
[6] = Cmax in plasma of female Ncr nude mouse bearing HCT116 tumor xenografts at 10 mg/kg, sc dosed as single administration measured up to 24 hrs post dose; assay type: ADME, organism-based; design: dose 10 mg/kg, route subcutaneous

## CN(C)C(=O)[C@H]1Cc2ccccc2[C@H]1Nc1cc(O[C@@H]2C[C@@H](COS(N)(=O)=O)[C@@H](O)C2)ncn1
NEDD8 activating enzyme
  IC50: 500 to 10000 nM

## Cc1c(N[C@H]2CCc3ccccc32)ncnc1O[C@@H]1C[C@@H](COS(N)(=O)=O)[C@@H](O)C1
NEDD8 activating enzyme
  IC50: ≤ 500 nM

## CO[C@H]1Cc2cc(Cl)ccc2C1Nc1cc(O[C@@H]2CC(COS(N)(=O)=O)[C@@H](O)C2)ncn1 (single isomer, unassigned)
Mus musculus [1]
  inhibition: Active
[2]
  AUC(0-t) at 24 h: 54.8 µM·h
[3]
  AUC(0-t) at 24 h: 24.5 µM·h
Mus musculus [4]
  inhibition: Active
[5]
  Cmax: 24.2 µM
[6]
  Cmax: 10.4 µM

## NS(=O)(=O)OC[C@H]1C[C@@H](Nc2ncnc(N[C@H]3CCc4ccccc43)n2)[C@H](O)[C@@H]1O
NEDD8 activating enzyme
  IC50: ≤ 500 nM

## COc1cccc(-c2nc3c(N[C@@H]4C[C@@H](COS(N)(=O)=O)[C@@H](O)C4)ncnc3[nH]2)c1OC
NEDD8 activating enzyme
  IC50: ≤ 500 nM

## COc1ccccc1-c1nc2c(N[C@@H]3C[C@@H](COS(N)(=O)=O)[C@@H](O)C3)ncnc2[nH]1
NEDD8 activating enzyme
  IC50: ≤ 500 nM

## NS(=O)(=O)OC[C@@H]1C[C@@H](Nc2ncnc3[nH]c(-c4ccc(Cl)cc4)nc23)C[C@@H]1O
NEDD8 activating enzyme
  IC50: ≤ 500 nM

## CO[C@H]1CCc2ccccc2C1Nc1cc(O[C@H]2CC(O)[C@H](COS(N)(=O)=O)C2)ncn1 (single isomer, unassigned)
NEDD8 activating enzyme
  IC50: ≤ 500 nM

## NS(=O)(=O)OC[C@@H]1C[C@@H](Oc2cc(N[C@H]3CCc4ccccc43)ncn2)C[C@@H]1O
NEDD8 activating enzyme
  IC50: > 10000 nM

## CO[C@H]1Cc2ccccc2[C@H]1Nc1cc(O[C@@H]2C[C@@H](COS(N)(=O)=O)[C@@H](O)C2)ncn1
[2]
  AUC(0-t) at 24 h: 26.3 µM·h
Mus musculus [4]
  inhibition: Active
[5]
  Cmax: 27.1 µM
